One compound from ChEMBL document CHEMBL4177737, “Identification of bicyclic hexafluoroisopropyl alcohol sulfonamides as retinoic acid receptor-related orphan receptor gamma (RORγ/RORc) inverse agonists. Employing structure-based drug design to improve pregnane X receptor (PXR) selectivity” (Bioorg Med Chem Lett, 2018) can be followed below.

Each structure is given as a SMILES string.

In data set [1] the target is T1, Nuclear receptor subfamily 1 group I member 2 (Homo sapiens, UniProt O75469).
T1 sequence (O75469 whole entry): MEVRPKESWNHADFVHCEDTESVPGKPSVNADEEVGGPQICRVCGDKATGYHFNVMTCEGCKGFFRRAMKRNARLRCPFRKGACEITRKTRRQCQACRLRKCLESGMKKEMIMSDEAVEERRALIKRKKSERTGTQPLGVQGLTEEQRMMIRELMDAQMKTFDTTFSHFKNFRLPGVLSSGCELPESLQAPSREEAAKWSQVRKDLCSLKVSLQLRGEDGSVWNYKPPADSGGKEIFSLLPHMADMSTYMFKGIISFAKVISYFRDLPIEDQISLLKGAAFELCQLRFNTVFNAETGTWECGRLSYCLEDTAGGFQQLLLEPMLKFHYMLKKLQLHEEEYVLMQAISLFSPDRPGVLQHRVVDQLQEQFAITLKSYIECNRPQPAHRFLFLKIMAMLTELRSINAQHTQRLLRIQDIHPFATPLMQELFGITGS
Kind of data set: Transactivation of PXR in human HepG2 cells by receptor transactivation assay. Type of data set: ADME, cell-based.

For the next data set, the target named is T2, PXR (NR1I2) (Homo sapiens, UniProt O75469).
T2 sequence (O75469 whole entry): T1 sequence (O75469 whole entry)
Kind of data set: Transactivation of PXR in human HepG2 cells by receptor transactivation assay relative to untreated control. In kind it is ADME, cell-based. Particulars: HepG2 cells, read-out: %max.

Data set [2] is described as follows: Drug level in Balb/c mouse at 30 mg/kg, po BID measured at 23.5 hrs on day 1. In kind it is ADME, organism-based. The conditions noted are these: in vivo, read-out: Drug uptake.
The nature of data set [3]: Drug level in Balb/c mouse at 30 mg/kg, po BID measured at 7.5 hrs on day 1. Particulars: in vivo, read-out: Drug uptake. In kind it is ADME, organism-based.
Data set [4] in a line: Drug level in Balb/c mouse at 30 mg/kg, po BID measured at 1 hr on day 1. Type of data set: ADME, organism-based. The conditions noted are these: in vivo, read-out: Drug uptake.
The target of data set [5] is T3, Oxysterols receptor LXR-alpha (Homo sapiens, UniProt Q13133).
T3 sequence (Q13133 whole entry): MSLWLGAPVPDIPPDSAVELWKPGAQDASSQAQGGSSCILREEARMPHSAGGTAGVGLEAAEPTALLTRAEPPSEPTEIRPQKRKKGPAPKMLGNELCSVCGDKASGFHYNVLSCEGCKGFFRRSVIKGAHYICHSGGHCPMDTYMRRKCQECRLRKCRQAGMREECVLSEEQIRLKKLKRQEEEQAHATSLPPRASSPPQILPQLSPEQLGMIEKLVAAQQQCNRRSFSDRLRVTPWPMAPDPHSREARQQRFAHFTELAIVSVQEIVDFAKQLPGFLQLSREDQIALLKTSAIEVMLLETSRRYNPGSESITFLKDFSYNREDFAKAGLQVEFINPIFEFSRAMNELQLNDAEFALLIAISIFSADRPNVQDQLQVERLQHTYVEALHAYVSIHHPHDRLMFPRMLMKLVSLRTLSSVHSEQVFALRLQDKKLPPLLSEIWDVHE
Nature of the data set: Agonist activity at GAL4-tagged human LXRalpha assessed as receptor activation expressed in African green monkey CV1 cells by luciferase reporter gene assay. Type of data set: cell-based.

In data set [6] the target is T4, Oxysterols receptor LXR-beta (Homo sapiens, UniProt P55055).
T4 sequence (P55055 whole entry): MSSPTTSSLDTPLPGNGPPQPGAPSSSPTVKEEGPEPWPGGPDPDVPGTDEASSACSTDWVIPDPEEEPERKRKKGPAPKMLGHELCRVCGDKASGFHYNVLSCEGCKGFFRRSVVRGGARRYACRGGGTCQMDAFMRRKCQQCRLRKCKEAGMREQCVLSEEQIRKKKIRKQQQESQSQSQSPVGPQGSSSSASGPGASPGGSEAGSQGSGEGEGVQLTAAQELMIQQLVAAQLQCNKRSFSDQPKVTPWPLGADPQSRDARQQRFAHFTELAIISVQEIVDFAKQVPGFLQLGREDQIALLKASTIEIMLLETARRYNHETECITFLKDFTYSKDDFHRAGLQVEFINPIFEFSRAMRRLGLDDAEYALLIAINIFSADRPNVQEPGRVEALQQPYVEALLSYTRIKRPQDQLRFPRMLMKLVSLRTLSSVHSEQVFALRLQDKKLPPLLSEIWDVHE
Nature of the data set: Agonist activity at GAL4-tagged human LXRbeta assessed as receptor activation expressed in African green monkey CV1 cells by luciferase reporter gene assay. Type of data set: cell-based.

A short description of data set [7]: Stability in human liver microsomes assessed as parent compound remaining incubated for 10 mins. Type of data set: ADME, microsome. Particulars: liver microsomes, read-out: Stability.
A short description of data set [8]: Stability in mouse liver microsomes assessed as parent compound remaining incubated for 10 mins. Type of data set: ADME, microsome. The conditions noted are these: liver microsomes, read-out: Stability.
Data set [9] concerns Mus musculus. Nature of the data set: Inhibition of IL-2/IL-23 induced IL-17 production in C57BL/6 mouse challenged 3 times with IL-2/IL-23 (at 0, 7 and 23 hrs) after IL-2 alone priming (-24 hrs) at 25 mg/kg, po dosed 30 mins prior to each IL-2/IL-23 co-administration and measured after 7 hrs post last IL-2/IL-23 challenge. Type of data set: functional. Particulars: C57BL/6, po.

In data set [10] the test system is Mus musculus. Kind of data set: Inhibition of IL-2/IL-23 induced IL-17 production in C57BL/6 mouse challenged 3 times with IL-2/IL-23 (at 0, 7 and 23 hrs) after IL-2 alone priming (-24 hrs) at 50 mg/kg, po dosed 30 mins prior to each IL-2/IL-23 co-administration and measured after 7 hrs post last IL-2/IL-23 challenge. In kind it is functional. Particulars: C57BL/6, po.

The nature of data set [11]: Drug level in Balb/c mouse at 30 mg/kg, po BID measured at 1 hr on day 5. Particulars: in vivo, read-out: Drug uptake. In kind it is ADME, organism-based.
Data set [12] can be described thus: Drug level in Balb/c mouse at 30 mg/kg, po BID measured at 7.5 hrs on day 5. The conditions noted are these: in vivo, read-out: Drug uptake. In kind it is ADME, organism-based.
The nature of data set [13]: Drug level in Balb/c mouse at 30 mg/kg, po BID measured at 23.5 hrs on day 5. In kind it is ADME, organism-based. The conditions noted are these: in vivo, read-out: Drug uptake.
The nature of data set [14]: Drug level in Balb/c mouse at 100 mg/kg, po BID measured at 1 hr on day 1. In kind it is ADME, organism-based. Particulars: in vivo, read-out: Drug uptake.
Data set [15] in a line: Drug level in Balb/c mouse at 100 mg/kg, po BID measured at 7.5 hrs on day 1. Type of data set: ADME, organism-based. The conditions noted are these: in vivo, read-out: Drug uptake.
The nature of data set [16]: Drug level in Balb/c mouse at 100 mg/kg, po BID measured at 23.5 hrs on day 1. Particulars: in vivo, read-out: Drug uptake. In kind it is ADME, organism-based.
Data set [17] in a line: Drug level in Balb/c mouse at 100 mg/kg, po BID measured at 1 hr on day 5. Type of data set: ADME, organism-based. Particulars: in vivo, read-out: Drug uptake.
The nature of data set [18]: Drug level in Balb/c mouse at 100 mg/kg, po BID measured at 7.5 hrs on day 5. In kind it is ADME, organism-based. The conditions noted are these: in vivo, read-out: Drug uptake.

Turning to `CC(C)(O)[C@H](F)CNC(=O)C[C@@H]1CCc2cc(C(O)(C(F)(F)F)C(F)(F)F)ccc2N1S(=O)(=O)c1ccc(F)cc1`, the EC50 in [1] is 2 µM; in data set [5], over 7.5 µM; in [6] it was over 7.5 µM. Besides, the Emax at PXR (NR1I2) came to 100%. In addition, the concentration at 23.5 h in data set [2] was 5 nM; in [13] it was 5 nM; in [16] it was 19 nM. Besides, the concentration at 7.5 h was 134 nM in data set [3], 21 nM in data set [12], 2460 nM in data set [15] and 61 nM in data set [18]. Besides, the concentration at 1 h stood at 3490 nM in [4], 555 nM in data set [11], 13900 nM in [14] and 2830 nM in [17]. Further, the results for the remaining at 10 min in data set [7] and in data set [8] were 56% and 62%, respectively. Also, the inhibition in vivo at 25 mg/kg in the data set on Mus musculus [9] came out at 74%. Also, the inhibition in vivo at 50 mg/kg in the data set with Mus musculus [10] amounted to 98%.
